The values that follow are results of earlier work, collected in patent US12673027B2, “Method for the production of commercial nanoparticle and microparticle powders” (ICEUTICA PTY LTD., priority 2009, dated 2026).

The conditions of the data set: absorption by the body.

For `Cc1cnc(NC(=O)C2=C(O)c3ccccc3S(=O)(=O)N2C)s1` [Meloxicam], the Tmax is 4 to 5 h.

As usually defined, the Tmax is the time from dosing to the highest level.
